{
  "source": "patent US20250161451A1",
  "about": "“ULTRASOUND-RESPONSIVE NANOSCALE DELIVERY PLATFORM FOR USE IN THE TREATMENT OF BIOFILM-ASSOCIATED DISEASES” (priority 2023, published 2025)",
  "origin": "cited, not measured here",
  "system": "MRSA biofilms",
  "settings": "co-delivery with stimulated phase-shift nanodroplet platform, in vitro",
  "data": [
    {"smiles": "CN[C@H](CC(C)C)C(=O)N[C@H]1C(=O)N[C@@H](CC(N)=O)C(=O)N[C@H]2C(=O)N[C@H]3C(=O)N[C@H](C(=O)N[C@H](C(=O)O)c4cc(O)cc(O)c4-c4cc3ccc4O)[C@H](O)c3ccc(c(Cl)c3)Oc3cc2cc(c3O[C@@H]2O[C@H](CO)[C@@H](O)[C@H](O)[C@H]2O[C@H]2C[C@](C)(N)[C@H](O)[C@H](C)O2)Oc2ccc(cc2Cl)[C@H]1O", "note": "[vancomycin]", "values": [
      {"measurement": "bactericidal effect on MRSA biofilms", "result": "strong but incomplete bactericidal effect"}
    ]}
  ]
}
